Reference: PMC11489226 (Archives of Toxicology, 2024)

Target: T1, CYP2C8 (Homo sapiens, UniProt P10632)
T1 construct: V5-His (vector-encoded) (C); expressed in transfected cells
T1 sequence (P10632 1-490): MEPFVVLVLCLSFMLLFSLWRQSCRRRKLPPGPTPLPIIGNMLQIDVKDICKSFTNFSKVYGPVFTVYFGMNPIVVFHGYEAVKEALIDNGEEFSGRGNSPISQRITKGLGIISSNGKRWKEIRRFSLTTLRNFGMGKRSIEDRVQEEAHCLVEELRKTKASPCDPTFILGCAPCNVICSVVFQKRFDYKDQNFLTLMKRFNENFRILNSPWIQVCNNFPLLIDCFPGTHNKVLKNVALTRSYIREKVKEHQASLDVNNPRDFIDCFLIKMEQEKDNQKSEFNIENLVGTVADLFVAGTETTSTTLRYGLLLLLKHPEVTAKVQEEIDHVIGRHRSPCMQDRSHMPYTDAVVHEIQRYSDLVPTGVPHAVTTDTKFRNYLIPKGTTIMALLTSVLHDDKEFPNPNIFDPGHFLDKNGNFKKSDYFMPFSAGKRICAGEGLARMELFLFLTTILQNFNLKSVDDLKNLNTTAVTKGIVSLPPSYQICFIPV
Test: Metabolism in transgenic HEK293 cells expressing CYP2C8
Type: in vitro ADME
Settings: 20 µM parent PCB, 24 h, supernatant
Protocol: For the generation of transgenic cell lines, we used semi-adherent HEK293 cells (DSMZ, ACC305, human embryonic kidney cells) which were cultured on a daily basis in DMEM medium supplemented with 10% (FCS) and 1% penicillin/streptomycin. In a first step CYP1A2, CYP2C8, CYP2C9, CYP3A4, CYP2A6, and CYP2E1 cDNA were cloned into the plasmid pcDNATM3.1/V5-His TOPO® using human liver RNA as a template and using the following primers: CYP1A2 for5′-[…]-3′, CYP1A2 rev 5′-[…]-3′; CYP2C8 for 5′-[…]-3′, CYP2C8 rev 5′-[…]-3′; CYP2C9 for 5′-[…]-3′, CYP2C9 rev 5′-[…]-3′; CYP3A4 for 5′-[…]-3′, CYP3A4 rev 5′-[…]-3′, CYP2A6 for 5′-[…]-3′, CYP2A6 rev 5′-[…]-3′; CYP2E1 for 5′-[…]-3′, CYP2E1 rev 5′-[…]-3′. Final constructs were verified with Sanger DNA sequencing and restriction digestion. For transfection, 3 × 10^6 HEK293 cells were pre-incubated in a 10 cm dish in DMEM medium with 10% FCS, but without antibiotics, for 18 to 24 h. When the cells reached approximately 70% confluency, they were transfected using TransIT-LT1 transfection reagent (Biozol, Eiching, Germany). The TransIT-LT1 reagent was warmed to room temperature and vortexed. 1.63 mL Opti-MEM, 16.25 µL plasmid DNA (1 µg/µL), and 48.75 µL TransIT-LT1 reagent were mixed and incubated for 15 to 30 min. The mixture was then added dropwise to the medium of the cells, and the cells were incubated again at 37 °C and 5% CO2. After 24 h, the medium was replaced with standard medium and geneticin was added for selection (1 mg/mL). Cells were selected for 6–8 weeks in bulk culture, and single cell clones were obtained subsequently by limiting dilution. Each clone was checked for insertion by PCR using genomic DNA as a template.
Parallel samples were run without the addition of PCBs. At a confluence of 80%, PCBs (20 μM each, dissolved in ethanol) were added and cells were incubated for 24 h before harvest of supernatants. Supernatants were diluted 1:2 with 80 μL acetate buffer 0.1 M (pH = 5.3). 100 μL of this dilution were further incubated with 100 μL of ammonium acetate buffer 0.1 M (pH = 5.3) and 5 μL of β-Glucuronidase/Arylsulfatase enzyme overnight in a drying oven at 37 °C for enzymatic hydrolysis to release conjugated compounds. 50 μL of a mix of internal standards (10 ng/mL) and 600 μL of methanol were added to the samples, then mixed by vortexing for 1 min and centrifuged for 10 min at 3400g. The individual supernatants were transferred to glass LC vials and evaporated to approximately 50 μL at 45 °C under a gentle stream of nitrogen. Finally, 0.1 mol/ L ammonium acetate buffer was added to a final volume of 100 μL and then transferred to an insert for analysis. […]

Measured: Quantification of metabolites generated from PCB28, 52, and 101

Oc1cc(-c2ccc(Cl)cc2)c(Cl)cc1Cl [5-OHCB28, 2,4,4′-trichloro-5-biphenylol]
<LOQ: CYP2C8 Clone A3 | CYP2C8 Clone D8 | CYP2C8 Clone D9

Oc1cc(Cl)c(-c2ccc(Cl)cc2)cc1Cl [4-OHCB31, 2,4′,5-trichloro-4-biphenylol]
<LOQ: CYP2C8 Clone A3 | CYP2C8 Clone D8 | CYP2C8 Clone D9
